Positions of bridges follow the written chain, without caps; N, C: chain ends. Residues, ends and D or L forms follow the SMILES beside them.
Legend:
Solubility = assay type: physicochemical
sepsis = conditions: antibiotic-treated control group; cited from earlier work

Row | solubility (Solubility) [mg/mL] | water solubility and bioavailability relative to SN50 peptide (Solubility; vs first generation NTCI (SN50 peptide)) [times] | SMILES | survival with meropenem alone (sepsis) [%]
1 | ≥ 100 | 8 | CSCC[C@@H]1NC(=O)[C@H](CC(C)C)NC(=O)[C@H](CCCCN)NC(=O)[C@H](CCC(N)=O)NC(=O)[C@H](CCCNC(=N)N)NC(=O)[C@H](CCCCN)NC(=O)[C@H](CCCNC(=N)N)NC(=O)[C@H](CCC(N)=O)NC(=O)[C@H](C(C)C)NC(=O)[C@@H](NC(=O)[C@@H]2CCCN2C(=O)[C@H](C)NC(=O)[C@H](CC(C)C)NC(=O)[C@H](CC(C)C)NC(=O)[C@H](C)NC(=O)[C@H](CC(C)C)NC(=O)[C@H](CC(C)C)NC(=O)[C@@H](NC(=O)[C@H](C)NC(=O)[C@@H]2CCCN2C(=O)[C@H](CC(C)C)NC(=O)[C@H](CC(C)C)NC(=O)[C@H](C)NC(=O)[C@@H](NC(=O)[C@H](C)NC(=O)[C@H](C)N)C(C)C)C(C)C)CSSC[C@@H](C(=O)O)NC(=O)[C@@H]2CCCN2C1=O [cSN50.1] (H-AAVALLPAVLLALLAPCVQRKRQKLMPC-OH; disulfide 17-28) | –
2 | – | – | C[C@@H](O)[C@H]1C(=O)N2C(C(=O)O)=C(S[C@@H]3CN[C@H](C(=O)N(C)C)C3)[C@H](C)[C@H]12 [meropenem] | 30

Source: patent publication US20260317388A1, “SELECTIVE NUCLEAR BLOCKADE FOR THE TREATMENT OF SEPSIS” (priority 2023, published 2026)
